# Laboratory results reported in US5344841A, “Bis-(hydroxylakylamino)-anthraquinone inhibitors of protein kinase C” (Sphinx Pharmaceuticals Corporation, priority 1992, dated 1994).
# pIC50: −log10 of the molar value.
# Columns and labels:
# [1] = system: MCF-7/ADR adriamycin resistant line of MCF-7 cells; assay: Human tumor growth inhibition, 3H-thymidine incorporation, MCF-7/ADR; assay type: cell-based; details: NCI/ADR-RES, 3H-thymidine uptake
# [2] = system: MCF-7 human mammary carcinoma xenografts; assay: MCF-7 human mammary carcinoma xenografts in athymic nude mice; assay type: in vivo, mouse (human tumor xenograft); details: FIG. 4
# [3] = system: NHEK human keratinocytes; assay: Human keratinocyte inhibition, 3H-thymidine incorporation; assay type: cell-based
# Experimental: Human tumor cells are trypsinized (0.05% trypsin, GIBCO), counted with a hemacytometer and seeded at a concentration of 10,000 cells/well in a 96 well microtiter plate. After allowing cells to attach to the surface overnight, the culture medium is aspirated and replaced with 100 μl of fresh medium. Test agents are diluted to determine dose response at 2× final concentration and added in quadruplicate at 100 μl/well to bring the total volume of each well to 200 μl. The microtiter plate is then incubated at 37° C. 5% CO2 overnight (18-24 hrs) before ^3 H-thymidine is added at a concentration of 0.5 μCi/well in 50 μl culture medium. The plate is incubated again for 4 hrs under the same conditions as above. […] Cells are checked microscopically to determine detachment from surfaces, and plates are then harvested with a cell harvester (PHD, Cambridge Technology, Inc.) Filter papers corresponding to wells are placed in scintillation vials and counted to determine the amount of ^3 H-thymidine incorporated by the cells. […]
# Proliferating keratinocytes (NHEK cells purchased from Clonetics, Inc. San Diego, Calif.) in second passage were grown in Keratinocyte Growth Medium (KGM) (Clonetics, Inc.) Cells were trypsinized with 0.025% trypsin (Clonetics), counted with a hemacytometer (Scientific Products), and seeded at a concentration of 2,500 cells/well in a 96 well microtiter plate. […]
# [4] = system: P388 murine leukemia; assay: P388 leukemia tumor assay in mice, survival time; assay type: in vivo, mouse
# Text: P388 Leukemia Tumors. Mice were young adult, pathogen-free, BALA/c×DBA/2 F1 (i.e., CD2F1) females purchased from Charles River Laboratories. The tumor line was the P388 murine leukemia, ascites form, obtained from the National Cancer Institute (NCI) Tumor Repository (Frederick, Md.). The tumor was maintained in the serial passage in mice by periodic intraperitoneal (ip) implantation. For this experiment, 10^6 hemacytometer-counted P388 murine leukemia cells were implanted ip into mice on Day 0. The mice were randomized into one untreated control group of 20 and 15 test groups of six mice each. All drug treatment was delivered ip on the basis of the average body weight of each group. […] Body weights were recorded on Days 1, 5, 9, 11, and 18. Deaths were recorded daily. Dying mice were necropsied, and the presence or absence of ascites or splenomegaly was recorded. Drug effectiveness was assessed on the basis of the survival time. Results were expressed as a percentage of the control survival time (Survival Time=T/C×100%; T=test animals; C=control animals). The criterion for effectiveness was determined by: T/C×100≥125 percent.
# [5] = system: 8226/MT Mitoxantrone resistant line of 8226 cells; assay: Human tumor growth inhibition, 3H-thymidine incorporation, 8226/MT
# [6] = system: MCF-7 human breast tumor cell line; assay: Human tumor growth inhibition, 3H-thymidine incorporation, MCF-7; assay type: cell-based; details: 3H-thymidine uptake; read-out: IC50 MCF-7
# Text: MCF-7 a human breast tumor cell line, and MCF-7/ADR an adriamycin resistant line of MCF-7 cells were obtained from the National Cancer Institute, Frederick, Md. NHEK a human keratinocyte cell line was obtained from Clonetic Corp., San Diego, Calif. 8226 a human myeloma cell line, 8226/MT a Mitoxantrone resistant line of 8226 cells, and 8226 ADR an adriamycin resistant line of 8226 cells were obtained from Dr. Bill Dalton, Arizona Cancer Center, Tuscon, Ariz.
# Human tumor cells are trypsinized (0.05% trypsin, GIBCO), counted with a hemacytometer and seeded at a concentration of 10,000 cells/well in a 96 well microtiter plate. After allowing cells to attach to the surface overnight, the culture medium is aspirated and replaced with 100 μl of fresh medium. Test agents are diluted to determine dose response at 2× final concentration and added in quadruplicate at 100 μl/well to bring the total volume of each well to 200 μl. The microtiter plate is then incubated at 37° C. 5% CO2 overnight (18-24 hrs) before ^3 H-thymidine is added at a concentration of 0.5 μCi/well in 50 μl culture medium. The plate is incubated again for 4 hrs under the same conditions as above. Supernatant is then aspirated and 50 μl trypsin (0.05%, GIBCO) is added to each well. Cells are checked microscopically to determine detachment from surfaces, and plates are then harvested with a cell harvester (PHD, Cambridge Technology, Inc.) Filter papers corresponding to wells are placed in scintillation vials and counted to determine the amount of ^3 H-thymidine incorporated by the cells. Test agent response is compared to a positive control of cell wells with culture media only to determine the IC50. IC50 is the concentration of test compound required to inhibit fifty percent of the incorporation of ^3 H-thymidine into proliferating cells not exposed to test agent. Uptake of ^3 H-thymidine is a standard test for measuring the metabolism of cells. Cells which are actively proliferating take up ^3 H-thymidine, whereas cells that are not proliferating take up ^3 H-thymidine at much slower rates or not at all. Test agents that inhibit the uptake of ^3 H-thymidine thus slow the growth of cells.
# [7] = system: human neutrophils; assay: Neutrophil superoxide anion (O2-) release assay, PMA-stimulated; assay type: cell-based; details: Homo sapiens, Neutrophil, PMA-stimulated O2- production
# Experimental: Neutrophils were isolated form whole blood collected from human volunteers. All reagent materials were obtained from Sigma Chemical Company with the exception of isotonic saline (Travenol Lab., Inc. Deerfield, Ill.) and lymphocyte separation medium (Organon Teknika, Durham, N.C.). Whole blood was drawn and mixed with sodium heparin (final conc. 10 units/ml) to prevent clotting. An equal volume of dextran (3.0%) in isotonic saline was added, mixed, and allowed to settle for 30 min to bind red blood cells (RBC). The supernatant was removed, underlayered with lymphocyte separation medium and centrifuged for 40 min at 400 xg in a centrifuge (Beckman GPR, Norcross, Ga.). […] The washed pellet was resuspended in 10 ml HBSS and placed on ice before counting on a hemacytometer. The neutrophil cell concentration is adjusted to 2×10^6 cells/ml with HBSS before adding 0.8 ml cells to 12×75 mm polypropylene test tubes (Fisher Scientific). Test agents are diluted to determine dose response and added at 10×final concentration at a volume of 0.1 ml/tube in duplicate. […] Tubes are then centrifuged at 900 xg for 10 min, 0.5 ml supernatant is removed and added to 0.5 ml H2 O in a microcuvette. Optical density (OD) of cytochrome c is read in a spectrophotometer (Shimadzu) at 550 nm. The ΔOD of cytochrome c is obtained between PMA-stimulated and non-stimulated tubes, and the dose responses of the test agents are compared to the positive controls (which contain HBSS in place of test agents). PMA stimulates O2^- production which reduces cytochrome c. Reducing cytochrome c increases its absorbance, and the change in OD of cytochrome c is proportional to the amount of O2^- produced by PMA stimulation. Inhibition of the O2^- burst by test compounds of the invention is seen as a reduction in the change in optical density. Inhibition is expressed as IC50 μM and is the amount of test compound that will inhibit fifty percent of the PMA-stimulated respiratory outburst, i.e. O2^- production.
# [8] = system: 8226/ADR adriamycin resistant line of 8226 cells; assay: Human tumor growth inhibition, 3H-thymidine incorporation, 8226/ADR; assay type: cell-based; details: 3H-thymidine uptake
smiles,measurement,setting,value
"CCN(CC)CC(O)CNc1ccc(NCC2CO2)c2c1C(=O)c1ccccc1C2=O (stereo not shown) [Compound 1b-1, 1-(3-diethylamino-2-hydroxypropylamino)-4-(2,3-epoxypropylamino)-9, 10-anthracenedione]",pIC50,[1],7.22
same,median tumor weight vs control mice (in words),[2]; at stabilization,significantly lower than the weight of the control mice
same,day at which tumor growth was stabilized,"[2]; iv, once every four days, five injections",~30 days
same,day until which median tumor weight remained stable,[2]; then tumor regrowth,~38 days
same,pIC50,[3],7.40
same,% T/C p388 Leukemia,"[4]; 16 mg/kg, Q4D × 3, ip, survival time",140%
same,survival time of mice (in words),[4]; all dosages and schedules,effectively increased the survival time
same,Resistance Ratio (8226/MT),[5]; 8226/MT vs 8226,0.13
same,pIC50,"[5]; Homo sapiens, read-out: IC50 8226/MT",8.10
same,ratio of IC50 for 8226 cells to IC50 for 8226/MT cells,[5]; text wording of ratio,0.13
same,pIC50,[6],7.60
same,pIC50,[7],< 4.60
same,pIC50,[8],7.80
